Where two headings read alike, the source gives them in different places. Blank lines part the entries; values can stand above or below the compound they belong to.
Key:
[1] = Partition coefficient (1-octanol/buffer); format: physicochemical; conditions: 1-octanol / 0.1 M phosphate buffer, pH 7.4
Description: Partition coefficients were measured by mixing the [^18F]tracer with 3 g each of 1-octanol and buffer (0.1 M phosphate, pH 7.4) in a test tube. The test tube was vortexed for 3 min at room temperature, followed by centrifugation for 5 min. Two weighed samples (0.5 g each) from the 1-octanol and buffer layers were counted in a well counter. The partition coefficient was determined by calculating the ratio of cpm/g of 1-octanol to that of buffer. Samples from the 1-octanol layer were re-partitioned until consistent partitions of coefficient values were obtained (usually the 3rd or 4th partition). The measurement was done in triplicate and repeated three times.

[2] = molecular target: Aβ plaques (postmortem AD brain homogenates) (Homo sapiens, UniProt P05067); assay: Binding assay: inhibition of [125I]IMPY binding in postmortem AD brain homogenates
Chain of Aβ plaques (postmortem AD brain homogenates) (P05067 672-711 limits assumed): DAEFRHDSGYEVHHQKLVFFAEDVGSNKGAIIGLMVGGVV
Description: Postmortem brain tissues were obtained from AD patients at autopsy, and neuropathological diagnosis was confirmed by current criteria (NIA-Reagan Institute Consensus Group, 1997). Homogenates were then prepared from dissected gray matters from AD patients in phosphate buffered saline (PBS, pH 7.4) at the concentration of approximately 100 mg wet tissue/ml (motor-driven glass homogenizer with setting of 6 for 30 sec).
Binding assays were carried out in 12×75 mm borosilicate glass tubes. […] The mixture was incubated at 37° C. for 2 hr and the bound and the free radioactivity were separated by vacuum filtration through Whatman GF/B filters using a Brandel M-24R cell harvester followed by 2×3 ml washes of PBS at room temperature. Filters containing the bound ^125I ligand were assayed for radioactivity content in a gamma counter (Packard 5000) with 70% counting efficiency. […] The results of inhibition experiments were subjected to nonlinear regression analysis using EBDA by which Ki values were calculated.

[3] = Organ distribution in normal mice after iv injection of [18F]tracers; format: in vivo; conditions: ICR mice, [18F]tracer in 0.1% BSA
Description: The organs of interest were removed and weighed, and the radioactivity was assayed for radioactivity content with an automatic gamma counter. The percentage dose per organ was calculated by a comparison of the tissue counts to suitably diluted aliquots of the injected material. Total activities of blood were calculated under the assumption that they were 7% of the total body weight. The % dose/g of samples was calculated by comparing the sample counts with the count of the diluted initial dose.

[4] = system: Aβ plaques; conditions: cited from earlier work
[5] = molecular target: AD cortical homogenates; conditions: Kung et al. 2004, cited from earlier work
[6] = molecular target: fibrillar Aβ aggregates (Homo sapiens, UniProt P05067); conditions: Mathis et al. 1997; read-out: inhibition constants (Ki) for binding to fibrillar Aβ aggregates; cited from earlier work
Chain of fibrillar Aβ aggregates (P05067 672-711 limits assumed): as above

- logp value (lipophilicity) [1]: 2.05
Structure (SMILES): CNc1ccc(C=Cc2ccc(OCCOCCOCCOCC[18F])cc2)cc1 [[^18F]12c]

- Ki ([2]; read-out: Ki ± SEM, X = F): 6 ± 0.8 nM
- Blood ([3]; 2 min): 4.99 ± 0.38 % dose/g
- Bone ([3]; 2 min): 2.24 ± 0.21 % dose/g
- Brain ([3]; 2 min): 7.30 ± 1.05 % dose/g
- Blood ([3]; 30 min): 4.66 ± 0.06 % dose/g
- Bone ([3]; 30 min): 2.29 ± 0.21 % dose/g
- Brain ([3]; 30 min): 2.43 ± 0.03 % dose/g
- Blood ([3]; 1 hr): 2.89 ± 0.11 % dose/g
- Bone ([3]; 1 hr): 1.66 ± 0.01 % dose/g
- Brain ([3]; 1 hr): 1.77 ± 0.11 % dose/g
- Blood ([3]; 2 hr): 2.59 ± 0.18 % dose/g
- Bone ([3]; 2 hr): 2.35 ± 0.27 % dose/g
- Brain ([3]; 2 hr): 1.62 ± 0.03 % dose/g
Structure (SMILES): CNc1ccc(C=Cc2ccc(OCCOCCOCCOCCOCCF)cc2)cc1 [Compound 12d, [4-(2-{4-[2-(2-{2-[2-(2-Fluoro-ethoxy)-ethoxy]-ethoxy}-ethoxy)-ethoxy]-phenyl}-vinyl)-phenyl]-methyl-amine]

- logp value (lipophilicity) [1]: 2.28
Structure (SMILES): CNc1ccc(C=Cc2ccc(OCCOCCOCCOCCOCC[18F])cc2)cc1 [[^18F]12d]

- Ki ([2]; read-out: Ki ± SEM, X = OH): 5.2 ± 0.2 nM
Structure (SMILES): CNc1ccc(C=Cc2ccc(OCCOCCOCCOCCOCCO)cc2)cc1 [Compound 3d, 2-(2-{2-[2-(2-{4-[2-(4-Methylamino-phenyl)-vinyl]-phenoxy}-ethoxy)-ethoxy]-ethoxy}-ethoxy)-ethanol]

Structure (SMILES): [11CH3]Nc1ccc(/C=C/c2ccc(O)cc2)cc1 [[^11C]SB-13]
- accumulation in the frontal cortex ([4]; mild to moderate AD patients, not in age-matched control subjects): high accumulation

Structure (SMILES): CNc1ccc(/C=C/c2ccc(O)cc2)cc1 [[^3H]SB-13]
- Kd [5]: 2.4 ± 0.2 nM

Structure (SMILES): [11CH3]Nc1ccc(-c2nc3ccc(O)cc3s2)cc1 [[^11C]6-OH-BTA-1]
- retention in the cortex ([4]; patients with diagnosed mild AD): marked retention

- Ki ([2]; read-out: Ki ± SEM, X = OH): 2.8 ± 0.2 nM
Structure (SMILES): CNc1ccc(C=Cc2ccc(OCCOCCOCCO)cc2)cc1 [Compound 3b, 2-[-2-(2-{4-[2-(4-Methylamino-phenyl)-vinyl]-phenoxy}-ethoxy)-ethoxy]-ethanol]

Structure (SMILES): [3H]N(c1ccc(/C=C/c2ccc(O)cc2)cc1)C([3H])([3H])[3H] [[^3H]SB-13]
- binding capacity ([5]; AD cortical homogenates): 14-45 pmol/mg protein

- Bone ([3]; 2 hr): 2.74 % dose/g
- logp value (lipophilicity) [1]: 2.41
Structure (SMILES): CNc1ccc(C=Cc2ccc(OCCOCCOCC[18F])cc2)cc1 [[^18F]12b, [^18F]{4-[2-(4-{2-[2-(2-Fluoro-ethoxy)-ethoxy]-ethoxy}-phenyl)-vinyl]-phenyl}-methyl-amine]

- Blood ([3]; 2 min): 3.22 ± 0.20 % dose/g
- Bone ([3]; 2 min): 2.31 ± 0.12 % dose/g
- Brain ([3]; 2 min): 6.59 ± 0.19 % dose/g
- Blood ([3]; 30 min): 1.88 ± 0.08 % dose/g
- Bone ([3]; 30 min): 1.00 ± 0.02 % dose/g
- Brain ([3]; 30 min): 1.27 ± 0.03 % dose/g
- Blood ([3]; 1 hr): 1.81 ± 0.48 % dose/g
- Bone ([3]; 1 hr): 0.98 ± 0.27 % dose/g
- Brain ([3]; 1 hr): 1.20 ± 0.10 % dose/g
- Blood ([3]; 2 hr): 1.60 ± 0.12 % dose/g
- Bone ([3]; 2 hr): 1.50 ± 0.05 % dose/g
- Brain ([3]; 2 hr): 1.21 ± 0.06 % dose/g
Structure (SMILES): CNc1ccc(C=Cc2ccc(OCCOCCOCCOCCF)cc2)cc1 [Compound 12c, (4-{2-[4-(2-{2-[2-(2-Fluoro-ethoxy)-ethoxy]-ethoxy}-ethoxy)-phenyl]-vinyl}-phenyl)-methyl-amine]

- Ki ([2]; read-out: Ki ± SEM, X = OH): 5.2 ± 0.4 nM
Structure (SMILES): CNc1ccc(C=Cc2ccc(OCCOCCO)cc2)cc1 [Compound 3a, 2-(2-{4-[2-(4-Methylamino-phenyl)-vinyl]-phenoxy}-ethoxy)-ethanol]

- logp value (lipophilicity) [1]: 2.52
Structure (SMILES): CNc1ccc(C=Cc2ccc(OCCOCC[18F])cc2)cc1 [[^18F]12a, [^18F][4-(2-{4-[2-(2-Fluoro-ethoxy)-ethoxy]-phenyl}-vinyl)-phenyl]-methyl-amine]

- Ki ([2]; read-out: Ki ± SEM, X = OH): 4.6 ± 0.2 nM
Structure (SMILES): CNc1ccc(C=Cc2ccc(OCCOCCOCCOCCO)cc2)cc1 [Compound 3c, 2-{2-[2-(2-{4-[2-(4-Methylamino-phenyl)-vinyl]-phenoxy}-ethoxy)-ethoxy]-ethoxy}-ethanol]

Structure (SMILES): CC(=C(C#N)C#N)c1ccc2cc(N(C)CCF)ccc2c1 [[^18F]FDDNP]
- relative residence time of the brain region of interest versus the pons ([4]; AD patients versus comparison subjects, PET): significantly higher in AD patients

- Ki ([2]; read-out: Ki ± SEM, X = F): 2.9 ± 0.2 nM
- Blood ([3]; 2 min): 2.64 ± 0.55 % dose/g
- Bone ([3]; 2 min): 1.89 ± 0.25 % dose/g
- Brain ([3]; 2 min): 8.14 ± 2.03 % dose/g
- Blood ([3]; 30 min): 2.42 ± 0.27 % dose/g
- Bone ([3]; 30 min): 1.40 ± 0.11 % dose/g
- Brain ([3]; 30 min): 3.00 ± 0.16 % dose/g
- Blood ([3]; 1 hr): 2.04 ± 0.16 % dose/g
- Bone ([3]; 1 hr): 1.71 ± 0.23 % dose/g
- Brain ([3]; 1 hr): 2.60 ± 0.22 % dose/g
- Blood ([3]; 2 hr): 2.77 ± 0.63 % dose/g
- Bone ([3]; 2 hr): 2.88 ± 0.07 % dose/g
- Brain ([3]; 2 hr): 2.14 ± 0.06 % dose/g
Structure (SMILES): CNc1ccc(C=Cc2ccc(OCCOCCF)cc2)cc1 [Compound 12a, [4-(2-{4-[2-(2-Fluoro-ethoxy)-ethoxy]-phenyl}-vinyl)-phenyl]-methyl-amine]

Structure (SMILES): O=C(O)c1cc(/N=N/c2ccc(-c3ccc(/N=N/c4ccc(O)c(C(=O)O)c4)cc3)cc2)ccc1O [CG, chrysamine-G]
- Ki [6]: 370 nM

Reference: US7858072B2, “Stilbene derivatives and their use for binding and imaging amyloid plaques” (The Trustees of the University of Pennsylvania, priority 2004, dated 2010)
